The test system of test [1] is serum antibody raised against f88-EFRH. Particulars: ELISA, read-out: IC50, competitive inhibition, MICE SERUM; cited from earlier work. (In general: An ELISA detects its analyte on a solid surface through an enzyme-linked reagent.)
Test [2] concerns amyloid anti-aggregating antibody. As to conditions: Frenkel et al. 1998, ELISA, read-out: IC50, competitive inhibition, anti-aggregating antibody*; cited from earlier work.
The next test relates to Balb/c mice. In words: Immunization of Balb/c mice with MAP conjugated peptides, IgG titer by ELISA. In kind it is in vivo. As to conditions: injection every two weeks with Freund's adjuvant, compared among 3 MAP peptides, FIG. 3. The method, then: 3 groups of Balb/c mice were injected with 3 different MAP (octa-branched) conjugated peptides: ISEVKMDA (residues 1-8 of SEQ ID NO:1, where residue 6 is Met), VKMDAEFRH (SEQ ID NO:5) and ISEVKLDA (residues 1-8 of SEQ ID NO:1, where residue 6 is Leu). The stock solution (2 mg/ml) was prepared as follows: 1000 μl of double distilled water (DDW), 665 μl of Freund's adjuvant (Complete Freund's adjuvant on first injection and Incomplete Freund's adjuvant on subsequent injections) and 335 μl of peptide stock solution. 300 μl of the vaccination solution (immunizing composition) was injected into each mouse every two weeks after initial injection.
96-well ELISA. plates were coated with 50 μl/well peptide stock solution at dilution of 1:500 in coating buffer (0.1M Na2CO3, pH 9.6) and incubated overnight at 4° C. The plates were washed with 2×PBS (0.05% TWEEN) and 2×PBS, blocked with 3% milk/PBS 180 μl/well and incubated for 1.5 hr at 37° C. Serum dilutions in 1% milk/PBS 50 μl/well were incubated for 1 hr at 37° C., then washed again with 50 μl/well α-mouse-IgG (H+L)HRP conjugated with dilution of 1:5000 in 1% milk/PBS incubated for 1 hr at 37° C. Additional washings contained PBS (0.05% TWEEN) and finally PBS. Reaction was done with 50 μl/well of 15 ml 0.05M citrate buffer with 30 mg OPD and 5 μl of 30% H2O2. […]

No end group written: not given here.

As usually defined, the IC50 is the midpoint of a concentration-inhibition curve. As for Aβ(1-40): full length Aβ-peptide (1-40), the IC50 was 3 µM in test [1] and 0.8 µM in test [2].
In the case of DAEFRH [residues 1-6 of Aβ], the IC50 in test [1] is 3 µM; in test [2] it was 0.8 µM.
On to DAEFRHD [residues 1-7 of Aβ], for which the figures for the IC50 in test [1] and in test [2] were 5 µM and 0.9 µM, respectively.
For DAEFRHDSG [residues 1-9 of Aβ], the results for the IC50 in test [1] and in test [2] were 5 µM and 1 µM, respectively.
Turning to EFRH [residues 3-6 of Aβ], the results for the IC50 in test [1] and in test [2] were 6 µM and 3 µM, respectively.
“FRH (Amyloid-beta protein 40; UniProt P05067 675-677, looked up, fragment) [residues 4-6 of Aβ]”: the IC50 is roughly 1000 µM in test [1] and 3000 µM in test [2].
With “MAP-ISEVKLDA: octavalent multiple antigenic peptide with ISEVKLDA (residues 1-8 of SEQ ID NO:1, residue 6 Leu), Swedish mutation β-secretase cleavage site epitope (also: octavalent multiple antigenic peptide on MAP core; listed as Homo sapiens)”, in the test with Balb/c mice, the “immune response after immunization” value is listed as “highest immune response”.

Values taken from US8613928B2, “Immunizing composition and method for inducing an immune response against the β-secretase cleavage site of amyloid precursor protein” (Ramot at Tel-Aviv University Ltd., priority 2002, dated 2013).
